Read-outs that look alike come from different tables or passages of the source.
Tests used:
[1] = 13-week toxicity study in monkeys; assay type: in vivo, monkey
Procedure: As noted above, the thiazolidinone is additionally well-suited to treating elderly patients because of its long duration of action and its substantial lack of undesirable side effects. Toxicologic properties of the thiazolidinone were evaluated in single-dose oral and intravenous (IV) studies in mice and rats and multidose oral studies in rats and dogs. The thiazolidinone was tested in dogs and monkeys in escalating-dose oral toxicity to determine the most sensitive nonrodent species. […] The initial 13-week dog study was repeated to evaluate the reproducibility of the perivascular effects. Dose range-finding studies were performed in pregnant rats and rabbits, and genotoxic potential was assessed in vitro and in vivo. […] Based on exposure at the no-effect dose in definitive studies, the rat appears to be the most sensitive species followed by the dog and the monkey, albeit with minor differences in exposure between the species.

IL-1β = assay: Production of cytokine IL-1β; assay type: cell-based
ICAM-1 = assay: Cell-surface expression of ICAM-1; assay type: cell-based
[2] = tested on: experimental autoimmune encephalomyelitis (EAE); assay: Experimental autoimmune encephalomyelitis (EAE) in mice, Experiment 2; assay type: in vivo, mouse, PL/J(F1)×SJL/J; conditions: sensitized
Procedure: The thiazolidinone was evaluated in a mouse model of experimental autoimmune encephalomyelitis (EAE). The compound was administered orally to mice sensitized with a fragment of mouse myelin basic protein to induce EAE. Two experiments were conducted using the same protocol and neurological evaluations. Test animals were dosed for 21 days, beginning 4 hours before sensitization on Day 1. The effects of the thiazolidinone were compared to a control group of mice sensitized identically and dosed with vehicle alone. Neurological evaluations continued after cessation of drug treatment. The values reported in Tables 1 and 2 below include responses during drug treatment only.
The thiazolidinone was homogenized manually with an aliquot of warm vehicle (0.5% hydroxypropyl methylcellulose with 0.2% Tween 80in water) in glass mortar tubes and homogenizing pestle. The smooth drug paste was gradually suspended in vehicle. Mice were dosed with drug and/or vehicle, […] in groups of ten (Experiment 1) or twenty (Experiment 2). Mice were dosed from Experiment Day 1 to Day 21. A sham-sensitized group was similarly dosed with vehicle or thiazolidinone 30 mg/kg (Experiment 1).
Female mice, strain PL/J(F1)×SJL/J from Jackson Labs, were sensitized s.c. (0.05 cc×2) at the base of the tail with an emulsion containing equal parts of mouse myelin basic protein (MBP) fragment (amino acids 1-9 of the N-terminus of MBP) in saline and Difco Complete Freund's Adjuvant (CFA) fortified with heat killed desiccated Mycobacteria tuberculosis (MT). Each mouse received 300 μg of the MBP fragment (230 μg free base) and 200 μg MT followed by retrobulbar (i.v.) injection of 200 ng of B. pertussis toxin in 0.2 cc of saline. Forty-eight hours later, mice received a second injection of B. pertussis toxin. Mice in Experiment 1 were 8 to 9 weeks old; mice in Experiment 2 were 11 weeks old.
Animals were weighed and evaluated for symptoms of EAE before sensitization and frequently for 21 days. EAE score: (0.5=slight limp tail, 1=limp tail or slow to right, 1.5=slight limp tail and slow to right, 2=paresis/mild paralysis or incontinence, 2.5=mild paralysis and slow to right or complete paralysis (one hind limb), 3=hind limb paralysis (both), 3.5=hind limb paralysis (both) and limp torso; 4=additional fore limb paralysis, 4.5=head movement only, 5=moribund, death after previous EAE symptoms). Evaluators were blinded as to drug treatments and previous behavioral scores.
Disease symptoms were compared among groups for EAE severity, incidence, time to onset, cumulative score, deaths, and weight loss. Peak EAE score: the mean of highest score of each mouse in a group, independent of duration of symptoms; EAE incidence: the mean number of mice showing symptoms of EAE, defined as having EAE scores on any three consecutive days that total≥3.0. EAE deaths: An animal that died must have presented previous evidence of an EAE score greater than 0.5; EAE onset: the first of a 3-day series scoring a total of≥3.0. A Cumulative EAE score is calculated for each animal. A mean of all animals' cumulative score is then determined for each day. Maximum weight loss: the mean of the lowest weight for each animal in a group. (Note: The Cumulative EAE score and the Maximum weight loss can be influenced by death which eliminates severely diseased animals. The number of days that animals are scored also affects the cumulative score and can only be compared "within-trial"). Mice that die from dosing trauma or with no previous symptoms of EAE are deleted from the study. Experimental groups were assumed to be similar and were compared for statistical significance by a two-tailed t-test (p≤0.05).
The previous study was repeated with three larger groups of sensitized mice treated with (1) vehicle, (2) thiazolidinone at 10 mg/kg, or (3) thiazolidinone at 30 mg/kg.

NMDA-induced injury = conditions: for percent protection against NMDA-induced injury: 15 minutes and 2.25 hours after NMDA
Procedure: Intrastriatal injections of NMDA (15 nmol/0.5 μL) were performed in male and female Sprague-Dawley rat pups (Charles River Laboratory, Portage, Mich.) on Postnatal Day (PND) 7. The animals were anesthetized with ether, and the calvarium was exposed by a midline incision through the skin. The rat pups were placed in a plaster of paris mold that was secured to a small animal stereotaxic instrument (Kopf Instruments). NMDA (Sigma) was dissolved in 0.1 M phosphate-buffered saline (PBS) adjusted to pH 7.4 with 1 N NaOH. Injections of NMDA ([…]) were placed in the middle of the right posterior corpus striatum (coordinates relative to Bregma; AP -2.0 mm, ML 2.5 mm, at a depth of 4.0 mm from the dura) with a 26-gauge Hamilton syringe. The syringe was left in place for 2 minutes following the injections to limit leakage. Temperature of the animals was kept constant after surgery in a thermostatically controlled environment (HovaBator chick incubator; BFG Corp., Savannah, Ga.) set at 35° C. to 36° C. for 1 hour after the last drug or vehicle injection. Drug solutions were prepared in PBS and injected intraperitoneally (0.05 mL volume) 15 minutes, and 2.25 hours after intrastriatal injection of NMDA. Control animals received equal volumes of PBS.
After surgery, all animals were returned to the mothers for 5 days, and decapitated on PND 12. The brains were removed, the cerebral hemispheres were separated, and wet weights of each hemisphere were determined individually. Differences of the hemispheric weights were compared for each animal using the formula: 100×(C-I/C)=percent damage, a value that indicates the severity of damage of the injected (I) cerebral hemisphere relative to that of the uninjected contralateral (C) hemisphere. Percent protection is used to indicate the relative protection of the neuroprotective compound compared to the control and was calculated as: 100×[1-(% damagetreated /% damagecontrol)]. Data were expressed as mean percent damage±S.E.M. in all groups. Independent t-tests were used for statistical comparisons.

## CC(C)(C)c1cc(/C=C2\SC(N)=NC2=O)cc(C(C)(C)C)c1O [CI-1004, (Z)-5-[[3,5-bis(1,1-dimethylethyl)-4-hydroxyphenyl]methylene]-2-imino-4-thiazolidinone methanesulfonate]
[1]; 13-week study, not attributed to drug
  ileo-cecal erosions: Superficial ileo-cecal erosions identified microscopically were observed
[1]; 13 weeks
  NSAID-related changes: No typical NSAID-related changes were observed
IL-1β
  production of cytokine IL-1β: blocks production of the cytokine IL-1β
ICAM-1
  cell-surface expression of ICAM-1: blocks
[2]; 10 mg/kg oral
  Cumulative Score: 31.3 ± 3.6
  Deaths: 10/20
  EAE Incidence: 19/19
  EAE Onset: 11.8 days
  EAE Peak Score: 4.5 ± 0.7
[2]; 30 mg/kg oral
  Cumulative Score: 28.9 ± 2.7
  Deaths: 8/20
  EAE Incidence: 20/20
  EAE Onset: 12.4 days
  EAE Peak Score: 4.3 ± 0.2
[2]; 10 or 30 mg/kg
  daily EAE score or overall EAE responses: no effect on the daily EAE score or overall EAE responses
NMDA-induced injury; 2×10 mg/kg i.p., p<0.04
  percent protection against NMDA-induced injury: 28.1±9.2%
NMDA-induced injury; 2×30 mg/kg i.p., p<0.001
  percent protection against NMDA-induced injury: 49±8.2%
NMDA-induced injury; rat, in vivo, 30 mg/kg
  survival to PND 12: One animal dosed with thiazolidinone (2×30 mg/kg) did not survive to PND 12

Reference: US5912259A, “Method for treating and preventing neurodegenerative disorders by administering a thiazolidinone” (Warner-Lambert Company, priority 1998, dated 1999)
